Experiments:
LoVo cells = experiment: LoVo cell proliferation assay (intracellular ATP content, CellTiter-Glo); format: cell-based; details: LoVo human colon cancer cells, 3 days incubation; for IC50: 72 h, read-out: IC50 for LoVo cell proliferation inhibition
Excerpt: The following method evaluates the inhibitory effect of the compounds disclosed herein on the proliferation of LoVo cells via IC50 by measuring the intracellular ATP content. The experimental methodology is briefly described as follows:
• 1. LoVo, human colon cancer cells (Cobioer, Nanjing, CBP60032) • 2. Fetal bovine serum (FBS) (Gibco, 10091-148) • 3. F-12K Medium (Gibco, 21127030) • 4. CellTite-Glo reagent (Promega, G7573) • 5. 96-well cell culture plate (Corning, 3903) • 6. Pancreatin (Invitrogen, 25200-072) • 7. Microplate reader (BMG, PHERAstar) • 8. Cell counter (Countstar, Shanghai, IC1000)
LoVo cells were cultured in an F-12K culture medium containing 10% of FBS, and passaged twice or thrice a week in a passage ratio of 1:3 or 1:5. During passage, cells were digested by pancreatin, transferred to a centrifuge tube, and centrifuged for 3 min at 1200 rpm. The supernatant was discarded, and fresh culture medium was added to resuspend the cells. To a 96-well cell culture plate, 90 μL of the cell suspension was added at a density of 3.88×10^4 cells/mL. To peripheral wells of the 96-well plate, only 100 μL of complete medium was added. The plate was incubated in an incubator for 24 h (37° C., 5% CO2).
The test samples were diluted to 2 mM in DMSO and serially 3-fold diluted to the 10th concentration. Blank and control wells were set. 5 μL of the serially diluted test compound solutions was added to 95 μL of fresh medium. 10 μL of the medium containing the compound above was added to the plate. The plate was incubated in an incubator for 3 days (37° C., 5% CO2). 50 μL of CellTiter-Glo reagent was added into each well of the 96-well cell culture plate. The plate was let stand for 5-10 min in the dark at room temperature. The chemiluminescence signals were read by a PHERAstar system, and the data were processed by GraphPad software.

ATR enzyme = target: T1, ATR enzyme (Homo sapiens, UniProt Q13535); experiment: Inhibitory effect on ATR enzyme (phospho-p53 HTRF); format: biochemical; details: for IC50: 1 nM ATR enzyme, 50 nM P53 protein, 7.435 μM ATP, 2 h room temperature, read-out: IC50 for ATR enzyme inhibition; for Maximum inhibition (%) of ATR enzyme: compound serially 3-fold diluted from 1 μM
T1 construct: purchased Eurofins Pharma Discovery Services 14-953-M
T1 sequence (Q13535 whole entry): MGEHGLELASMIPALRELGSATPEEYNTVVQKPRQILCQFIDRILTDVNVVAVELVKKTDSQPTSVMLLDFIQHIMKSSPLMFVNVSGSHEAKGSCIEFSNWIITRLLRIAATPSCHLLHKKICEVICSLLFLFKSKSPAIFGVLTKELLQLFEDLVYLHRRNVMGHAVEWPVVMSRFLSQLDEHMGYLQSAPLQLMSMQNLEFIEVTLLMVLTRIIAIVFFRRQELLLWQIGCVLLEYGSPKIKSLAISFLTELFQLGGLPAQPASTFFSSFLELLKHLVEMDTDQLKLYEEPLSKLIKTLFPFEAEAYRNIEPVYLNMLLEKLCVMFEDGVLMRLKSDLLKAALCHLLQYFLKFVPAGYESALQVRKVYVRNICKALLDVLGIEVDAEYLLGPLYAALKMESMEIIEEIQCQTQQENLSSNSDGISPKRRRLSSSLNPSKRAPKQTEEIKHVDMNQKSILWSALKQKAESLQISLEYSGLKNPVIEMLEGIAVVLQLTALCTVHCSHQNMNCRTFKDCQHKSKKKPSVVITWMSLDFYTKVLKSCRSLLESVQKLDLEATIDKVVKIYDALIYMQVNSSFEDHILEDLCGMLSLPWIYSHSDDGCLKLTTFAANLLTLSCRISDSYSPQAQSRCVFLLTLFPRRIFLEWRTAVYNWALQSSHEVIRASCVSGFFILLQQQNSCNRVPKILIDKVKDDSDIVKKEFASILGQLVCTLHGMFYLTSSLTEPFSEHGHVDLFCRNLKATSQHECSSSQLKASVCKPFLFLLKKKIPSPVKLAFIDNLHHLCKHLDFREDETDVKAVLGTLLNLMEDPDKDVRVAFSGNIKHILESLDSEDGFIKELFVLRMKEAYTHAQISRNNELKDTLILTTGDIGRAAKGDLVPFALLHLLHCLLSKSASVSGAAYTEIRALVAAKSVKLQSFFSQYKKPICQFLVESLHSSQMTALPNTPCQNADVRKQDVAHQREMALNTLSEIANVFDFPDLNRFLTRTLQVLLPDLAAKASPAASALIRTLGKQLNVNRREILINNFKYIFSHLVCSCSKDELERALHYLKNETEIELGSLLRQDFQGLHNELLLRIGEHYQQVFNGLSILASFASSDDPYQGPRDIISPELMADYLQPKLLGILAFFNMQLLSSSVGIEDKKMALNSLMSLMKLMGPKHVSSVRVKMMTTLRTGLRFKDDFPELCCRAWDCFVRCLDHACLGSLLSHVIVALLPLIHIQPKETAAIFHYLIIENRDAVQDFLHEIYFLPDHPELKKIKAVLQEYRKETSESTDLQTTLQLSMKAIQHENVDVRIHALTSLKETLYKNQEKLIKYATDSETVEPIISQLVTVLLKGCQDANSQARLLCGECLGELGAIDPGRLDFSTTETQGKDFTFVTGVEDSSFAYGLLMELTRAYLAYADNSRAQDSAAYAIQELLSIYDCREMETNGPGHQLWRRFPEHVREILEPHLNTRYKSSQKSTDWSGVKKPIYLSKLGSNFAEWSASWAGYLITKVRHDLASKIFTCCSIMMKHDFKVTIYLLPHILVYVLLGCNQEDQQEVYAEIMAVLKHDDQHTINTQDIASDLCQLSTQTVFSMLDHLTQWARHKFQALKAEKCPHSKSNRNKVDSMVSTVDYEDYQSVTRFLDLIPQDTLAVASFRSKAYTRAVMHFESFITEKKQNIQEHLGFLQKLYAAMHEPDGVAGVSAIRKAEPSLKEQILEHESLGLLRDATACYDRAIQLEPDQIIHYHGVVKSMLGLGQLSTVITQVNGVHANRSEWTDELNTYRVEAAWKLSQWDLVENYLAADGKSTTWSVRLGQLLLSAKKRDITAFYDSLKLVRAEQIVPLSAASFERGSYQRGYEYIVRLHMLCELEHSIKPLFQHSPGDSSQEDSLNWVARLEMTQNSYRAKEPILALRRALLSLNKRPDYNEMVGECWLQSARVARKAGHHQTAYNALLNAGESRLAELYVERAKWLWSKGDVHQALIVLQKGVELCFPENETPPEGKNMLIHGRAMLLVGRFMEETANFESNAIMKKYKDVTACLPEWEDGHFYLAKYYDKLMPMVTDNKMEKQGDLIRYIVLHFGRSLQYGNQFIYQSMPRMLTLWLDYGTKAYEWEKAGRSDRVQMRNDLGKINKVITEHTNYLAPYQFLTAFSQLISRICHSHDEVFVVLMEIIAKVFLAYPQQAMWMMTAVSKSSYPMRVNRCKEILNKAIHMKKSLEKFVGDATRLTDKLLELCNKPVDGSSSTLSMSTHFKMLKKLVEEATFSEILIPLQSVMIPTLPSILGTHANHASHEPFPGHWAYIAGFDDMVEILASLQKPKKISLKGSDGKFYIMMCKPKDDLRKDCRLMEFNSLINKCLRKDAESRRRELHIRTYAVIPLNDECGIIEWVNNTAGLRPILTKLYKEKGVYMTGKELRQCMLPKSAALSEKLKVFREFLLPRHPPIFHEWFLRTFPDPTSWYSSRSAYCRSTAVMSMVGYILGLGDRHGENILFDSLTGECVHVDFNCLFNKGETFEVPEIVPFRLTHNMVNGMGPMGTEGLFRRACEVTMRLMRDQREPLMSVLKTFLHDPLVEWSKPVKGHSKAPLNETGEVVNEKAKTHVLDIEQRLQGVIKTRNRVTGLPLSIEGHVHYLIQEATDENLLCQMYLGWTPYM
T1 sequence (Q8WXE1 whole entry partner): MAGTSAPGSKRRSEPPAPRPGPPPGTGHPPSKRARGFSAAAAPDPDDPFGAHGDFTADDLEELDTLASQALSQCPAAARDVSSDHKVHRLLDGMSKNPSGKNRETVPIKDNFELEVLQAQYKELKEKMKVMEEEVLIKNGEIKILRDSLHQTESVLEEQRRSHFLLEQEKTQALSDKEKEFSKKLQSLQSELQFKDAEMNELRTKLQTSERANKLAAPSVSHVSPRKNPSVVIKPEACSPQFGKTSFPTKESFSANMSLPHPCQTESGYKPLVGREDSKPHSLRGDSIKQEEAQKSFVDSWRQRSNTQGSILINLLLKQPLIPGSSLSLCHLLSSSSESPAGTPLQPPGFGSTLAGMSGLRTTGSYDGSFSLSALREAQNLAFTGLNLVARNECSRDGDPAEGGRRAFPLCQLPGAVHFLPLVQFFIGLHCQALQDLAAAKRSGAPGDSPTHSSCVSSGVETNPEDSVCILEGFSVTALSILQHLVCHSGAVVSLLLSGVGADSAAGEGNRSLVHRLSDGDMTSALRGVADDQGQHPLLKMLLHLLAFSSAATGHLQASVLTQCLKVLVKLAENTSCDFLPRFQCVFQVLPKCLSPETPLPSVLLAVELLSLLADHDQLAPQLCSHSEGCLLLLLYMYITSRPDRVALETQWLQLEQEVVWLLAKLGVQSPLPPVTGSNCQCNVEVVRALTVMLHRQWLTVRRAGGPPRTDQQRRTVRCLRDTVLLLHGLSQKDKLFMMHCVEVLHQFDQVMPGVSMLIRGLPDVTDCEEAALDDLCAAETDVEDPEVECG
Excerpt: The following method was used to determine the inhibitory effect of the compounds disclosed herein on ATR enzyme. The experimental methodology is briefly described as follows:
• 1. ATR enzyme (Eurofins Pharma Discovery Services, 14-953-M) • 2. GST-tag P53 protein (Eurofins Pharma Discovery Services, 14-952-M) • 3. 384-well plate (Thermo Scientific, 267462) • 4. U-shaped bottom 96-well plate (Corning, 3795) • 5. MAb Anti-phospho p53-Eu cryptate (Cisbio, 61P08KAE) • 6. MAb Anti GST-d2 (Cisbio, 61GSTDLF) • 7. ATP solution (Promega, V916B) • 8. EDTA (Thermo Scientific, AM9260G) • 9. HEPES (Gibco, 15630-080) • 10. Microplate reader (BMG, PHERAsta)
1 nM ATR enzyme, 50 nM P53 protein, 7.435 μM ATP and small molecule compounds of different concentrations (serially 3-fold diluted from 1 μM to the 11th concentration) were mixed and incubated at room temperature for 2 h. A terminating buffer (12.5 mM HEPES, 250 mM EDTA) was added. The mixture was well mixed before 0.42 ng/well of mAb anti-phospho p53-Eu cryptate and 25 ng/well of mAb anti GST-d2 were added. The mixture was incubated overnight at room temperature, and the fluorescence signals at 620 nm and 665 nm were detected using a PHERAstar system. Data were processed using GraphPad software.

[1] = Pharmacokinetic study in rats after intragastric administration; format: in vivo; details: both sexes, Sprague-Dawley (SD), rat, plasma, po, 2 mg/kg; for Vd/F: read-out: Apparent volume of distribution Vz/F; for AUC: read-out: Area under curve AUC; for CL/F: read-out: Clearance CL/F; for half-life: read-out: Half life T1/2 (converted); for Cmax: read-out: Plasma concentration Cmax; for MRT: read-out: Retention time MRT
Method: The plasma concentration of the compounds of Examples 1, 2 and 3 in rats after intragastric administration were measured by LC/MS/MS. The pharmacokinetic performance in rats of the compounds disclosed herein was studied and their pharmacokinetic profile was evaluated.
The compounds of Examples 1, 2 and 3.
12 healthy adult SD rats (half male and half female; purchased from Vital River) were evenly divided into 3 groups of 4.
A certain amount of the compound was added to a mixed solvent containing 5% of DMSO, 5% of Tween 80 and 90% of normal saline to obtain a colorless and clear solution.
SD rats were intragastrically administered with the compounds after fasting overnight, at a dose of 2 mg/kg and a volume of 10.0 mL/kg.
Rats were intragastrically administered with the compounds of Examples 1, 2 and 3. 0.2 mL of blood was collected from the orbit pre-dose and at 0.25, 0.5, 1.0, 2.0, 4.0, 6.0, 8.0, 11.0 and 24.0 h post-does. The blood samples were transferred to EDTA-K2kk anticoagulation vacutainers, centrifuged at 4° C. and 11000 rpm for 5 min to separate plasma. The plasma samples were stored at −20° C. The mice were fed 2 h after administration.
The plasma concentration of the compounds in rats after intragastric administration was determined: 25 μL of rat plasma at each time point post-dose was mixed with 50 μL of internal standard and 175 μL of acetonitrile; the mixture was vortexed 5 min, and centrifuged for 10 min at 4000 rpm. 1 μL of supernatant was taken for LC/MS/MS analysis.

Row | Structure (SMILES) | IC50 (LoVo cells) | Maximum inhibition (%) of LoVo cell proliferation (LoVo cells) | IC50 (ATR enzyme) | Maximum inhibition (%) of ATR enzyme (ATR enzyme) | Vd/F [1] | AUC [1] | CL/F [1] | half-life [1] | Cmax [1] | MRT [1]
1 | C[C@@H]1COCCN1c1cc(C(C)(C)O)c2c(n1)c(-c1cc[nH]n1)nn2C [Comparative Example 1, (R)-2-(1-methyl-5-(3-methylmorpholinyl)-3-(1H-pyrazol-3-yl)-1H-pyrazolo[4,3-b]pyridin-7-yl)propan-2-ol, reference compound] | 0.316 µM | 92% | 0.073 µM | 97% |  |  |  |  |  | 
2 | C[C@@H]1COCCN1c1cc(C(C)(C)C#N)c2c(n1)c(-c1cc[nH]n1)nn2C [Example 1, (R)-2-methyl-2-(1-methyl-5-(3-methylmorpholinyl)-3-(1H-pyrazol-3-yl)-1H-pyrazolo[4,3-b]pyridin-7-yl)propanenitrile] | 0.043 µM |  |  |  |  |  |  |  |  | 
3 | C[C@@H]1COCCN1c1cc(C2(C#N)CC2)c2c(n1)c(-c1cc[nH]n1)nn2C [Example 2, (R)-1-(1-methyl-5-(3-methylmorpholinyl)-3-(1H-pyrazol-3-yl)-1H-pyrazolo[4,3-b]pyridin-7-yl)cyclopropanenitrile] | 0.075 µM | 90% | 0.009 µM | 100% | 7.8 ± 6.13 L/kg | 1.59 ± 1.39 µg·h/mL | 3.1 ± 2.97 L/h/kg | 2.57 ± 1.39 h | 0.309 ± 0.219 µg/mL | 3.99 ± 2.26 h
4 | C[C@@H]1COCCN1c1cc(-c2ccnn2C)c2c(n1)c(-c1cc[nH]n1)nn2C [Example 3, (R)-3-methyl-4-(1-methyl-7-(1-methyl-1H-pyrazol-5-yl)-3-(1H-pyrazol-3-yl)-1H-pyrazolo[4,3-b]pyridin-5-yl) morpholine] | 0.124 µM | 87% | 0.015 µM | 100% | 2.44 ± 0.448 L/kg | 2.71 ± 0.807 µg·h/mL | 0.788 ± 0.222 L/h/kg | 2.23 ± 0.53 h | 0.674 ± 0.0867 µg/mL | 3.26 ± 0.67 h
5 | CCn1nc(-c2cc[nH]n2)c2nc(N3CCOC[C@H]3C)cc(C(C)(C)C#N)c21 [Example 4, (R)-2-(1-ethyl-5-(3-methylmorpholinyl)-3-(1H-pyrazol-3-yl)-1H-pyrazolo[4,3-b]pyridin-7-yl)-2-methylpropanenitrile] | 0.064 µM | 89% | 0.006 µM | 100% |  |  |  |  |  | 
6 | CCn1nc(-c2cc[nH]n2)c2nc(N3CCOC[C@H]3C)cc(C3(C#N)CC3)c21 [Example 5, (R)-1-(1-ethyl-5-(3-methylmorpholinyl)-3-(1H-pyrazol-3-yl)-1H-pyrazolo[4,3-b]pyridin-7-yl) cyclopropanenitrile] | 0.1 µM | 93% | 0.008 µM | 100% |  |  |  |  |  | 
7 | C[C@@H]1COCCN1c1cc(C(C)(C)C#N)c2[nH]nc(-c3cc[nH]n3)c2n1 [Example 6, (R)-2-methyl-2-(5-(3-methylmorpholinyl)-3-(1H-pyrazol-3-yl)-1H-pyrazolo[4,3-b]pyridin-7-yl)propanenitrile] | 0.055 µM | 95% | 0.003 µM | 100% |  |  |  |  |  | 
